As usually defined, the pIC50 is the negative decadic logarithm of the IC50, by convention in mol/L. A higher pIC50 goes with a low IC50.

Structures are written as SMILES. pIC50: −log10 of the molar value. Where a name gives a salt, the structure may show the parent alone.

Among the data in patent US11174251B2, “Compositions and methods for inhibition of the JAK pathway” (Rigel Pharmaceuticals, Inc., priority 2010, dated 2021) are IC50 values, retold here.

The target of the test is T1, JAK3 (Homo sapiens, UniProt P52333).
T1 construct: The Ramos B-cell line was acquired from ATCC (ATCC Catalog No. CRL-1596); host or cells: Ramos B-cell line (human)
T1 sequence (P52333 1-1124): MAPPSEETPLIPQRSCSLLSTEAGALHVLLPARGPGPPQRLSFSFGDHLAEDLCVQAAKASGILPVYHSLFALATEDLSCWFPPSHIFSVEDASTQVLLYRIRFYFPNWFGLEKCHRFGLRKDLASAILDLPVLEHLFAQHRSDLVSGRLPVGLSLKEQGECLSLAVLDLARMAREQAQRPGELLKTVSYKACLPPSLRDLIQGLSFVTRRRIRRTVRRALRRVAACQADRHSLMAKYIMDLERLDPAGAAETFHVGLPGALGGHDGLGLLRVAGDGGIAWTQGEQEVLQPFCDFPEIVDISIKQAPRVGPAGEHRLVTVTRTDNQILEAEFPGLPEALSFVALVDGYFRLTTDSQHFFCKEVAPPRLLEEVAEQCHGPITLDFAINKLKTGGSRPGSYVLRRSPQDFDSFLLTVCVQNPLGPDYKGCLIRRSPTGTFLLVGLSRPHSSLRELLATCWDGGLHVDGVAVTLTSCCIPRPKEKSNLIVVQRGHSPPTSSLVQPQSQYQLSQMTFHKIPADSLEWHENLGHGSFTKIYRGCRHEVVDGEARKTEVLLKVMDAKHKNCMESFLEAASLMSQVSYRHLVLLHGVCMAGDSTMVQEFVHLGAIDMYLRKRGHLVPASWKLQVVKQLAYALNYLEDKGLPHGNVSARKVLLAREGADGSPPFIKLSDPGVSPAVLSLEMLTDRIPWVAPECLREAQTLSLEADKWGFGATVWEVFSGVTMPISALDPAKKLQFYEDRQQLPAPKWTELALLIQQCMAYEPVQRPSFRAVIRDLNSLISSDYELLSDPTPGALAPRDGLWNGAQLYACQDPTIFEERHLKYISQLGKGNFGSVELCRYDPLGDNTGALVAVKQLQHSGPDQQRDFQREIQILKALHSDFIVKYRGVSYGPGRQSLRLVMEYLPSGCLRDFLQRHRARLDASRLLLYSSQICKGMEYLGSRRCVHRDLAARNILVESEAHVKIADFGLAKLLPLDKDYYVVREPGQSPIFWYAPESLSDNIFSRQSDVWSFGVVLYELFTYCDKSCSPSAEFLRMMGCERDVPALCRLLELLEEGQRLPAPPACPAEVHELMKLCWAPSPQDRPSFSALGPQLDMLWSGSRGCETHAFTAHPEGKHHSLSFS
In words: Assay for CD23 expression on Ramos B-cells stimulated by IL-4 (Table IV: ability to inhibit JAK3 activity). The class given is cell-based. The following applies: tested under conditions described in Example 3 (so in the source). An excerpt:
One means of assaying for such inhibition is detection of the effect of the 2,4-pyrimidinediamine compounds on the upregulation of downstream gene products. In the Ramos/IL4 assay, B-cells are stimulated with the cytokine Interleukin-4 (IL-4) leading to the activation of the JAK/Stat pathway through phosphorylation of the JAK family kinases, JAK1 and JAK3, which in turn phosphorylate and activate the transcription factor Stat-6. […] To study the effect of inhibitors (for example, the 2,4-substituted pyrimindinediamine compounds described herein) on the JAK1 and JAK3 kinases, human Ramos B cells are stimulated with human IL-4. 20 to 24 hours post stimulation, cells are stained for upregulation of CD23 and analyzed using FACS.
B-cells stimulated with cytokine Interleukin-4 (IL-4) activate the JAK/Stat pathway through phosphorylation of the JAK family kinases, JAK-1 and JAK-3, which in turn phosphorylate and activate the transcription factor Stat-6. […] To study the effect of inhibitors on the JAK family kinases, human Ramos B cells were stimulated with human IL-4 and the surface expression of CD23 was measured.
The day before the experiment, Ramos B-cells were diluted to 3.5×10^5 cells/mL to ensure that they were in a logarithmic growth phase.
Cells were spun down and suspended in RPMI with 5% serum. 5×10^4 cells were used per point in a 96-well tissue culture plate. Cells were pre-incubated with compound or DMSO (Sigma-Aldrich, St. Louis, Mo., Cat No. D2650) vehicle control for 1 hour in a 37° C. incubator. Cells were then stimulated with IL-4 (Peprotech Inc., Rocky Hill, N.J., Cat No. 200-04) for a final concentration of 50 units/mL for 20-24 hours. […] Detection was performed using a BD LSR I System Flow Cytometer, purchased from Becton Dickinson Biosciences of San Jose, Calif.
The compound designations in Table IV are consistent with those of Tables I-II above.

In turn, `Cc1cc(Nc2nc(Nc3ccc(F)c(S(C)(=O)=O)c3)ncc2F)cc2[nH]c(=O)oc12` [Compound I-173, 5-(2-(4-fluoro-3-(methylsulfonyl)phenylamino)-5-fluoropyrimidin-4-ylamino)-7-methylbenzo[d]oxazol-2(3H)-one trifluoroacetate salt] showed a negative-log IC50 (pIC50) greater than 6.30. As for `[2H]C([2H])([2H])c1c(C)cc(Nc2ncc(C)c(Nc3ccc4oc(=O)[nH]c4c3)n2)cc1C` [Compound I-35, 5-[5-Methyl-2-(3,5-dimethyl-4-d3-methyl-phenylamino)-pyrimidin-4-ylamino]-3H-benzooxazol-2-one trifluoroacetate salt], the figure is greater than 6.30; as for `O=c1[nH]c2cc(Nc3nc(Nc4ccccc4)ncc3Cl)ccc2o1` [Compound I-4, 5-(5-chloro-2-(phenylamino)pyrimidin-4-ylamino)benzo[d]oxazol-2(3H)-one trifluoroacetate salt], greater than 6.30; as for `O=c1[nH]c2cc(Nc3nc(Nc4ccc5ccccc5c4)ncc3[N+](=O)[O-])ccc2o1` [II-6, 5-(2-(naphthalen-2-ylamino)-5-nitropyrimidin-4-ylamino)benzo[d]oxazol-2(3H)-one trifluoroacetate salt], less than 5.00. The compound `Cc1cc(Nc2nc(Nc3cccc(S(N)(=O)=O)c3)ncc2F)cc2[nH]c(=O)oc12` [Compound I-171, 3-(5-fluoro-4-(7-methyl-2-oxo-2,3-dihydrobenzo[d]oxazol-5-ylamino)pyrimidin-2-ylamino)benzenesulfonamide trifluoroacetate salt] gave a pIC50 greater than 6.30. As for `Cc1cnc(Nc2cc(C)c(F)c(C)c2)nc1Nc1ccc2oc(=O)[nH]c2c1` [Compound I-146, N2-(3,5-dimethyl-4-fluoro)phenyl-5-methyl-N4-(2-oxo-2,3-dihydro-1,3-benzoxazol-5-yl)-2,4-pyrimidinediamine benzenesulfonic acid salt], the figure is greater than 6.30.

`COc1ccc(Nc2ncc(C)c(Nc3ccc4oc(=O)[nH]c4c3)n2)cc1N` [Compound I-34, 5-[2-(3-Amino-4-methoxy-phenylamino)-5-methyl-pyrimidin-4-ylamino]-3H-benzooxazol-2-one] showed a negative-log IC50 (pIC50) greater than 6.30. As for `O=c1[nH]c2cc(Nc3nc(Nc4cc(F)cc(Cl)c4)ncc3Cl)ccc2o1` [Compound I-8, 5-(5-chloro-2-(3-chloro-5-fluorophenylamino)pyrimidin-4-ylamino)benzo[d]oxazol-2(3H)-one formate salt], the figure is greater than 6.30; as for `CCOc1cc(Nc2ncc(Cl)c(Nc3ccc4oc(=O)[nH]c4c3)n2)cc(C)c1C` [Compound I-104, 5-(5-chloro-2-(3-ethoxy-4,5-dimethylphenylamino)pyrimidin-4-ylamino)benzo[d]oxazol-2(3H)-one ditrifluoroacetate salt], greater than 6.30.

`Cc1cnc(Nc2ccc3c(c2)C(=O)OC3)nc1Nc1ccc2oc(=O)[nH]c2c1` [II-8, 5-methyl-N4-(2-oxo-2,3-dihydro-1,3-benzoxazol-5-yl)-N2-(1-oxo-1,3-dihydro-isobenzofuran-6-yl)-2,4-pyrimidinediamine] had a negative-log IC50 (pIC50) greater than 6.30. As for `Cc1cnc(Nc2cccc(N(C)C)c2)nc1Nc1ccc2oc(=O)[nH]c2c1` [Compound I-24, 5-[2-(3-Dimethylamino-phenylamino)-5-methyl-pyrimidin-4-ylamino]-3H-benzooxazol-2-one trifluoroacetate salt], the figure is greater than 6.30. With `O=c1[nH]c2cc(Nc3nc(Nc4ccc(F)c(-c5cccnc5)c4)ncc3F)ccc2o1` [Compound I-206, 5-(2-(4-fluoro-3-(pyridin-3-yl)phenylamino)-5-fluoropyrimidin-4-ylamino)benzo[d]oxazol-2(3H)-one], the negative-log IC50 (pIC50) is greater than 6.30. As for `O=c1[nH]c2cc(Nc3nc(Nc4ccccc4)ncc3[N+](=O)[O-])ccc2o1` [Compound I-41, 5-(5-nitro-2-(phenylamino)pyrimidin-4-ylamino)benzo[d]oxazol-2(3H)-one trifluoroacetate salt], the figure is 5.00 to 5.30; as for `Cc1cc(Nc2ncc(Cl)c(Nc3ccc4oc(=O)[nH]c4c3)n2)cc(C)c1C` [Compound I-6, 5-(5-chloro-2-(3,4,5-trimethylphenylamino)pyrimidin-4-ylamino)benzo[d]oxazol-2(3H)-one trifluoroacetate salt], less than 5.00. As for `Cc1cnc(Nc2cc(C)c(C)c(C)c2)nc1Nc1cc(/C=C/CCl)c2oc(=O)[nH]c2c1` [Compound I-96, 5-(2-(3,4,5-trimethylphenylamino)-5-methylpyrimidin-4-ylamino)-7-((E)-3-chloroprop-1-enyl)benzo[d]oxazol-2(3H)-one], the figure is 5.30 to 6.30; as for `Cc1cc(Nc2ncc(F)c(Nc3cc(F)c4oc(=O)[nH]c4c3)n2)cc(C)c1C` [Compound I-188, 5-(2-(3,4,5-trimethylphenylamino)-5-fluoropyrimidin-4-ylamino)-7-fluorobenzo[d]oxazol-2(3H)-one trifluoroacetate salt], greater than 6.30. As for `Cc1cnc(Nc2cccc(C#N)c2F)nc1Nc1ccc2oc(=O)[nH]c2c1` [Compound I-72, 2-fluoro-3-(5-methyl-4-(2-oxo-2,3-dihydrobenzo[d]oxazol-5-ylamino)pyrimidin-2-ylamino)benzonitrile trifluoroacetate salt], the figure is greater than 6.30. For `COc1ccc(Nc2ncc(F)c(Nc3ccc4oc(=O)[nH]c4c3)n2)cc1-c1ccncc1` [Compound I-208, 5-(2-(4-methoxy-3-(pyridin-4-yl)phenylamino)-5-fluoropyrimidin-4-ylamino)benzo[d]oxazol-2(3H)-one formate salt], the pIC50 was greater than 6.30.

`COc1ccc(F)c(Nc2ncc(F)c(Nc3ccc4oc(=O)[nH]c4c3)n2)c1` [Compound I-119, 5-(5-fluoro-2-(2-fluoro-5-methoxyphenylamino)pyrimidin-4-ylamino)benzo[d]oxazol-2(3H)-one] had a pIC50 of 5.00 to 5.30.

`COC(=O)c1cnc(Nc2ccc3ccccc3c2)nc1Nc1ccc2oc(=O)[nH]c2c1` [II-7, 2-(Naphthalen-2-ylamino)-4-(2-oxo-2,3-dihydro-benzooxazol-5-ylamino)-pyrimidine-5-carboxylic acid methyl ester trifluoroacetate salt] showed a negative logarithm of the IC50 (pIC50) of less than 5.00.

In the case of `CC(NC1CC1)c1ccc(Nc2ncc(F)c(Nc3ccc4oc(=O)[nH]c4c3)n2)cc1` (centres unmarked) [Compound I-158, 5-(2-(4-(1-(cyclopropylamino)ethyl)phenylamino)-5-fluoropyrimidin-4-ylamino)benzo[d]oxazol-2(3H)-one formate salt], the pIC50 is greater than 6.30.

`CCOC(=O)c1c(C)cc(Nc2ncc(C)c(Nc3ccc4oc(=O)[nH]c4c3)n2)cc1OC` [Compound I-128, ethyl 4-(4-(2,3-dihydro-2-oxobenzo[d]oxazol-5-ylamino)-5-methylpyrimidin-2-ylamino)-2-methoxy-6-methylbenzoate]: the negative-log IC50 (pIC50) is greater than 6.30.

Compound `Cc1cnc(Nc2ncc(C)c(Nc3ccc4oc(=O)[nH]c4c3)n2)cc1C` [II-14, N2-(4,5-dimethylpyridin-2-yl)-5-methyl-N4-(2-oxo-2,3-dihydro-1,3-benzoxazol-5-yl)-2,4-pyrimidinediamine] gave a pIC50 of less than 5.00.
